Assay results from US20250152751A1, “RED-SHIFTED FLUOROPHORES AND METHODS OF USING THE SAME” (GEORGIA STATE UNIVERSITY RESEARCH FOUNDATION, INC., priority 2022, published 2025).

Experiment: Optical properties of the fluorophores measured in ethanol, compared to ICG
Type: physicochemical
Conditions: for Φ^a (%): compared to ICG
In short: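 Using ethanol as the solvent, the optical behaviour of each fluorophore was characterised relative to a reference dye. The read-outs were the absorption maximum, the emission maximum, the Stokes shift, the quantum yield and the molar extinction coefficient.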

Row | SMILES | Stokes Shift (nm) | λabs (nm) | λem (nm) | ϵ (cm^−1 M^−1) | Φ^a (%)
1 | CCN1C(=CC=C2CCCC(C=C(C#N)C#N)=C2Cl)C(C)(C)c2ccccc21 [Compound 71] | 17 | 780 | 797 | 144,100 cm^−1 M^−1 | 12.1
2 | CCCCN1C(=CC=C2CCCC(C=C(C#N)C#N)=C2Cl)C(C)(C)c2cc(F)ccc21 [Compound 73] | 17 | 785 | 802 | 168,800 cm^−1 M^−1 | 12.2
3 | CCN1C(=CC=C2CCCC(C=C(C#N)C(=O)O)=C2Cl)C(C)(C)c2cc(F)ccc21 [Compound 50] | 14 | 780 | 799 | 165,300 cm^−1 M^−1 | 12.2
4 | CCN1C(=CC=C2CCCC(C=C(C#N)C(=O)O)=C2Cl)C(C)(C)c2cc(Cl)ccc21 [Compound 54] | 15 | 790 | 805 | 156,500 cm^−1 M^−1 | 12.0
5 | CCN1C(=CC=C2CC(C(C)(C)C)CC(C=C(C#N)C(=O)O)=C2Cl)C(C)(C)c2ccccc21 (centres unmarked) [Compound 58] | 17 | 780 | 797 | 138,200 cm^−1 M^−1 | 12.7
6 | CCN1C(=CC=C2CCCC(C=C(C#N)C(=O)O)=C2N2CCC(CO)CC2)C(C)(C)c2cc(Cl)ccc21 [Compound 83] | 122 | 670 | 792 | 75,300 cm^−1 M^−1 | 17.4
7 | CCCCN1C(=CC=C2CCCC(C=C(C#N)C(=O)O)=C2Cl)C(C)(C)c2cc(Cl)ccc21 [Compound 55] | 13 | 795 | 808 | 115,500 cm^−1 M^−1 | 11.5
8 | CCCCN1C(=CC=C2CCCC(C=C(C#N)C(=O)O)=C2Cl)C(C)(C)c2ccccc21 [Compound 48] | 17 | 785 | 802 | 181,400 cm^−1 M^−1 | 12.1
9 | CCCCN1/C(=C/C=C2\CCCC(/C=C(\C#N)C(=O)O)=C2Cl)C(C)(C)c2c1ccc1ccccc21 [Compound 56] | 7 | 820 | 827 | 151,100 cm^−1 M^−1 | 9.6
10 | CCN1C(=CC=C2CC(C(C)(C)C)CC(C=C(C#N)C(=O)O)=C2Cl)C(C)(C)c2cc(Br)ccc21 (centres unmarked) [Compound 61] | 15 | 790 | 805 | 123,500 cm^−1 M^−1 | 11.4
11 | CCN1C(=CC=C2CC(C(C)(C)C)CC(C=C(C#N)C(=O)O)=C2Cl)C(C)(C)c2cc(Cl)ccc21 (centres unmarked) [Compound 62] | 15 | 790 | 805 | 114,100 cm^−1 M^−1 | 11.5
12 | CN1C(=CC=C2CCCC(C=C(C#N)C(=O)O)=C2Cl)C(C)(C)c2cc(Br)ccc21 [Compound 52] | 16 | 790 | 806 | 153,600 cm^−1 M^−1 | 11.8
13 | CCN1C(=CC=C2CCCC(C=C(C#N)C(=O)O)=C2Cl)C(C)(C)c2ccccc21 [Compound 47] | 20 | 780 | 800 | 179,500 cm^−1 M^−1 | 12.3
14 | CCN1C(=CC=C2CC(c3ccccc3)CC(C=C(C#N)C(=O)O)=C2Cl)C(C)(C)c2cc(Br)ccc21 (centres unmarked) [Compound 68] | 15 | 790 | 805 | 167,800 cm^−1 M^−1 | 12.1
15 | CCCCN1C(=CC=C2CCCC(C=C(C#N)C(=O)O)=C2Cl)C(C)(C)c2cc(F)ccc21 [Compound 51] | 17 | 785 | 802 | 176,400 cm^−1 M^−1 | 11.9
16 | CCCCN1C(=CC=C2CC(C(C)(C)C)CC(C=C(C#N)C(=O)O)=C2Cl)C(C)(C)c2c1ccc1ccccc21 (centres unmarked) [Compound 64] | 8 | 820 | 828 | 146,300 cm^−1 M^−1 | 7.3
17 | CCN1C(=CC=C2CC(c3ccccc3)CC(C=C(C#N)C(=O)O)=C2Cl)C(C)(C)c2ccccc21 (centres unmarked) [Compound 66] | 15 | 780 | 795 | 155,700 cm^−1 M^−1 | 12.4
18 | CN1C(=CC=C2CCCC(C=C(C#N)C(=O)O)=C2N2CCC(CO)CC2)C(C)(C)c2cc(Br)ccc21 [Compound 81] | 126 | 665 | 791 | 64,200 cm^−1 M^−1 | 18.3
19 | CCN1C(=CC=C2CCCC(C=C(C#N)C(=O)O)=C2Cl)C(C)(C)c2cc(Br)ccc21 [Compound 53] | 17 | 790 | 807 | 171,000 cm^−1 M^−1 | 11.8
20 | CCN1C(=CC=C2CC(C(C)(C)C)CC(C=C(C#N)C(=O)O)=C2Cl)C(C)(C)c2cc(F)ccc21 (centres unmarked) [Compound 59] | 19 | 780 | 799 | 123,000 cm^−1 M^−1 | 12.5
21 | CCCCN1C(=CC=C2CC(C(C)(C)C)CC(C=C(C#N)C(=O)O)=C2Cl)C(C)(C)c2cc(F)ccc21 (centres unmarked) [Compound 60] | 18 | 785 | 803 | 137,400 cm^−1 M^−1 | 12.6
22 | CCCCN1/C(=C/C=C2\CC(C(C)(C)C)CC(/C=C(\C#N)C(=O)O)=C2Cl)Sc2ccccc21 (centres unmarked) [Compound 65] | 12 | 800 | 812 | 192,000 cm^−1 M^−1 | 10.5
23 | CCCCN1C(=CC=C2CCCC(C=C(C#N)C#N)=C2Cl)C(C)(C)c2ccccc21 [Compound 72] | 15 | 785 | 800 | 143,900 cm^−1 M^−1 | 12.1
24 | CN1C(=CC=C2CCCC(C=C(C#N)C(=O)O)=C2Cl)C(C)(C)c2cc(F)ccc21 [Compound 49] | 15 | 780 | 795 | 195,100 cm^−1 M^−1 | 12.6
25 | CCN1C(=CC=C2CC(C(C)(C)C)CC(C=C(C#N)C(=O)O)=C2N2CCC(CO)CC2)C(C)(C)c2cc(Cl)ccc21 (centres unmarked) [Compound 85] | 143 | 645 | 788 | 60,000 cm^−1 M^−1 | 19.9
26 | CCCCN1/C(=C/C=C2\CCCC(/C=C(\C#N)C(=O)O)=C2Cl)Sc2ccccc21 [Compound 57] | 14 | 800 | 814 | 198,700 cm^−1 M^−1 | 10.5
27 | CCN1C(=CC=C2CC(c3ccccc3)CC(C=C(C#N)C(=O)O)=C2Cl)C(C)(C)c2cc(Cl)ccc21 (centres unmarked) [Compound 69] | 11 | 790 | 801 | 136,500 cm^−1 M^−1 | 11.7
28 | CN1C(=CC=C2CC(C(C)(C)C)CC(C=C(C#N)C(=O)O)=C2Cl)C(C)(C)c2c1ccc1ccccc21 (centres unmarked) [Compound 63] | 6 | 815 | 821 | 167,100 cm^−1 M^−1 | 9.8
